In PMC6412019, “Discovery of NV-5138, the first selective Brain mTORC1 activator” (Scientific Reports, 2019):
Entries after “also recorded” stand apart in the source; their conditions may differ.

Experiments:
[1] = system: mTORC1; assay: mTORC1 activation in rat peripheral tissues after oral dosing (phosphorylated S6 S240/244 immunoblot); assay type: in vivo; conditions: 1 h after single oral dose; NV-5138 160 mg/kg, leucine 500 mg/kg
Experimental: After compound administration, animals were sacrificed by decapitation using a guillotine, immediately Specific regions of the brain were quickly microdissected, tissues collected, and flash frozen in liquid nitrogen. Peripheral tissues and all brain were homogenized using MP homogenizer in Lysis Buffer (Cell lysis buffer: 1% Triton X-100, 50 mM HEPES pH 7.4, 100 mM NaCl, 2 mM EDTA, 10 mM Beta-glycerophosphate, 10 mM Sodium pyrophosphate, and 1 protease inhibitor) at 4 °C. Synaptic proteins and mTORC1 analyses in each brain region were conducted on crude synaptoneurosome preparations as previously described. Equal amounts of total protein from each sample were denatured and, resolved by SDS-PAGE. Membranes were imaged using the LI-COR imaging system. Proteins levels are normalized to tubulin or GAPDH levels and further normalized to vehicle treated rats for each tissue. Antibodies used are listed in Supplementary Information.

[2] = system: mTORC1; assay: mTORC1 activation (phosphorylated S6K1 Thr389 immunoblot) in leucine-starved HEK-293T cells; assay type: cell-based, human
Experimental: (§1) Expression of flag-WDR24 allows for immunoprecipitation of the Sestrin2/GATOR2 complex from amino acid-starved cells with an anti-flag antibody. […] Finally, to determine whether Sestrins and the GATOR pathway are required for NV-5138 activity, HEK-293T cells null for all three Sestrin isoforms or the GATOR1 component Nprl3 were obtained.
All cell lines were cultured in DMEM supplemented with 10% FBS and maintained at 37 °C and 5% CO2. HEK-293T cells stably expressing Flag-WDR24 was generated as previously described. […] Details of reagent used for cell culture can be found in Supplementary Information.
Cell lysates were prepared as previously described. Lysates were cleared by centrifugation at 13,200 rpm at 4 °C for 8 min. For anti-FLAG IPs, the FLAG-M2 affinity gel was added to approximately 2 mg of lysates and incubated with rotation for 3 h at 4 °C. Following IP, the beads were washed one time with Triton wash buffer containing 500 mM NaCl. […] After compound incubation, IPs were collected by centrifugation. Immunoprecipitated proteins were denatured and, resolved by SDS-PAGE. Membranes were imaged using the LI-COR imaging system. Reagents and antibodies used are listed in Supplementary Information.

[3] = biological target: T1, BCAT2 (Homo sapiens, UniProt O15382); assay: BCAT enzymatic assay (substrate test), BCAT2; assay type: biochemical; conditions: NADH oxidation at 340 nm; tested up to 1.5 mM
T1 construct: purchased OriGene TP300625
T1 sequence (O15382 28-392): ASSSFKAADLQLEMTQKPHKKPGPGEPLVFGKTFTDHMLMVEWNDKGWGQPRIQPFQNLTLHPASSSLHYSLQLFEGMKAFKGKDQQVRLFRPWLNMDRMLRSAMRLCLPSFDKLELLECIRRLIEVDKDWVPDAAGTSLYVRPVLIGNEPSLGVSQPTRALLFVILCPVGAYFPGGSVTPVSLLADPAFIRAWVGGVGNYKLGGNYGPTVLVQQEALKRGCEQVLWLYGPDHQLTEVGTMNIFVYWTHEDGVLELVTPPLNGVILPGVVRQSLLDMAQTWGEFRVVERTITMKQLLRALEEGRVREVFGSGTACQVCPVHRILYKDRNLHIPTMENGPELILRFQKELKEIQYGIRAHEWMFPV
Experimental: BCAT exists in two isoforms, mitochondrial BCAT2 which is ubiquitously expressed, and cytosolic BCAT1, which is predominantly expressed in embryonic tissues and the adult brain. To determine whether NV-5138 is a substrate for BCAT isoforms, we established an in vitro enzymatic assay using purified BCAT1 and BCAT2 and performed the assay in the forward direction as described. […] The disappearance of absorbance at 340 nm due to NADH oxidation is measured continuously over time.
The assay buffer was dispensed into a 96-well plate and brought up to 37 °C for 10 min before adding BCAT1 or BCAT2 (72 ng) in 0.1 M potassium phosphate buffer. Absorbance at 340 nm was then read every minute for 30 min at RT using an Envision plate reader. Source of each reagents used can be found in Supplementary Information.

[4] = biological target: T2, Sestrin3 (Homo sapiens, UniProt P58005); assay: Cellular thermal shift assay (CETSA), intracellular Sestrin3 in HEK-293T cells; assay type: cell-based; conditions: 300 µM, 30 min, leucine-starved HEK293T cells
T2 construct: endogenous in cells; host or cells: HEK-293T
T2 sequence (P58005 1-492): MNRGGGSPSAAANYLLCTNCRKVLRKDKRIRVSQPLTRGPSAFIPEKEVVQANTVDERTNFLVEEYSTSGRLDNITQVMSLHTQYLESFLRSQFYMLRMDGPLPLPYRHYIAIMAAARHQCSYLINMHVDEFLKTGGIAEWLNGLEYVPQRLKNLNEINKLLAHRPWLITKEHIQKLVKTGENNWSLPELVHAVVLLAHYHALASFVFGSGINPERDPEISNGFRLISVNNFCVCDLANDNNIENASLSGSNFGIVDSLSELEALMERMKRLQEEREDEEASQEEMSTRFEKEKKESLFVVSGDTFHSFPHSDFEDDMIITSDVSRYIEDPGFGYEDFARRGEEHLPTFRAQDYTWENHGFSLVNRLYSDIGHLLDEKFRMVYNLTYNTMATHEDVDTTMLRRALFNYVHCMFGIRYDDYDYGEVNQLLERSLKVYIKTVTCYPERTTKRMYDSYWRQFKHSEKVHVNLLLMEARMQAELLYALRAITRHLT
Experimental: as §1
CETSA was performed as previously described. […] Cells were then collected, centrifuged for 3 min at 300 g at room-temperature (RT), washed with PBS, centrifuged again, and finally resuspended in 1 ml of RT PBS containing EDTA-free protease-inhibitor tablets (Roche). 100 µl of each cell suspension was heated at the noted temperature for 3 min, samples were then placed on the bench at RT for 3 min before being flash-frozen in liquid nitrogen. To lyse the cells, samples were put through two cycles of freeze-thawing followed by centrifugation at 20,000 g for 20 min at 4 °C. 80 µl of the resulting supernatant was denatured and, resolved by SDS-PAGE. Membranes were imaged using the LI-COR imaging system. Antibodies used are listed in Supplementary Information.

SMILES	mTORC1 activation in kidney, heart, tibialis anterior muscle, testes, epididymal fat [1]	mTORC1 activation in liver [1]	mTORC1 activation in lung, spleen, gastrocnemius muscle, eye, thymus [1]	mTORC1 activation (pS6K1) ([2]; leucine-starved HEK-293T cells null for all three Sestrin isoforms)	mTORC1 activation (pS6K1) ([2]; leucine-starved HEK-293T cells null for the GATOR1 component Nprl3)	transamination by BCAT2 [3]	change of melting temperature of intracellular Sestrin3 [4]	mTORC1 activation (pS6K1) ([2]; leucine-starved unedited HEK-293T cells)
CC(C)C[C@H](N)C(=O)O [Leucine, L-leucine, reference compound]	significant activation	significant activation	little to no activation	refractory	refractory	transaminated by BCAT1 and BCAT2	neither NV-5138 nor leucine changed the melting temperature	
CC(C)(C[C@H](N)C(=O)O)C(F)F [NV-5138, (S)-2-amino-5,5-difluoro-4,4-dimethylpentanoic acid]	significant activation	trend	little to no activation			no decrease in absorption at 340 nm; also recorded: did not observe any transamination	neither NV-5138 nor leucine changed the melting temperature; also recorded: does not impact the melting temperature	activates mTORC1
